In ChEMBL document CHEMBL4507259 (2021):

Legend:
[1] = molecular target: Myosin light chain kinase (Homo sapiens) (UniProt Q32MK0); details: Compound concentration 1000.0 nM
[2] = molecular target: Serine/threonine-protein kinase OSR1 (Homo sapiens) (UniProt O95747); details: Compound concentration 1000.0 nM
[3] = molecular target: RAC-gamma serine/threonine-protein kinase (Homo sapiens) (UniProt Q9Y243); details: Compound concentration 1000.0 nM
[4] = molecular target: Serine/threonine-protein kinase STK11 (Homo sapiens) (UniProt Q15831); details: Compound concentration 1000.0 nM
[5] = molecular target: Mitogen-activated protein kinase 13 (Homo sapiens) (UniProt O15264); details: Compound concentration 1000.0 nM
[6] = molecular target: Serine/threonine-protein kinase 26 (Homo sapiens) (UniProt Q9P289); details: Compound concentration 1000.0 nM
[7] = system: Receptor-type tyrosine-protein kinase FLT3 (Homo sapiens), P36888 [D835Y]; details: Compound concentration 1000.0 nM
[8] = molecular target: Myosin-IIIb (Homo sapiens) (UniProt Q8WXR4); details: Compound concentration 1000.0 nM
[9] = system: Hepatocyte growth factor receptor (Homo sapiens), P08581 [M1250T]; details: Compound concentration 1000.0 nM
[10] = molecular target: Cyclin-dependent kinase 14 (Homo sapiens) (UniProt O94921); details: Compound concentration 1000.0 nM
[11] = system: Epidermal growth factor receptor (Homo sapiens), P00533 [L858R,T790M]; details: Compound concentration 1000.0 nM
[12] = molecular target: Ephrin type-B receptor 3 (Homo sapiens) (UniProt P54753); details: Compound concentration 1000.0 nM
[13] = molecular target: Mitogen-activated protein kinase 7 (Homo sapiens) (UniProt Q13164); details: Compound concentration 1000.0 nM
[14] = molecular target: Proto-oncogene tyrosine-protein kinase Src (Homo sapiens) (UniProt P12931); details: Compound concentration 1000.0 nM
[15] = molecular target: Cyclin-dependent kinase 3 (Homo sapiens) (UniProt Q00526); details: Compound concentration 1000.0 nM
[16] = molecular target: BDNF/NT-3 growth factors receptor (Homo sapiens) (UniProt Q16620); details: Compound concentration 1000.0 nM
[17] = molecular target: Phosphatidylinositol 4-phosphate 5-kinase type-1 gamma (Homo sapiens) (UniProt O60331); details: Compound concentration 1000.0 nM
[18] = molecular target: T1, Alpha-2A adrenergic receptor (Homo sapiens) (UniProt P08913); assay: alpha 2A (h) CEREP ligand profiling; details: filed as antagonist, Compound concentration 10.0 uM
T1 sequence (whole entry): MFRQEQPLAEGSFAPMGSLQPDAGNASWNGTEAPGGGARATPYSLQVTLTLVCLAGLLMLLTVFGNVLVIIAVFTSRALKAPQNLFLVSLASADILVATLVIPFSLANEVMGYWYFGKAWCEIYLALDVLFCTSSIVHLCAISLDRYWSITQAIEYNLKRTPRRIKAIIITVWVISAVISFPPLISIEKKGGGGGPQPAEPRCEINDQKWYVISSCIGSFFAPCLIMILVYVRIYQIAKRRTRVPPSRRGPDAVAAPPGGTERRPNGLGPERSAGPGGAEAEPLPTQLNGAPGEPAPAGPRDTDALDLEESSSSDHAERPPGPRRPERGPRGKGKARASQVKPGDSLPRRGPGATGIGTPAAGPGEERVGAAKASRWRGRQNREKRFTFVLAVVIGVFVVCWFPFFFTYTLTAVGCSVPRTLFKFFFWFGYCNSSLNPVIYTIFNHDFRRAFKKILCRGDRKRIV

[19] = molecular target: Calcium/calmodulin-dependent protein kinase type II subunit alpha (Homo sapiens) (UniProt Q9UQM7); details: Compound concentration 1000.0 nM
[20] = molecular target: P2X receptor (Rattus norvegicus) (UniProt P51579+P49653+P51578+Q64663+P47824+P51577+P49654); assay: P2X CEREP ligand profiling; assay type: protein assay; details: filed as agonist; Compound concentration 10.0 uM
[21] = molecular target: Serine/threonine-protein kinase SIK3 (Homo sapiens) (UniProt Q9Y2K2); details: Compound concentration 1000.0 nM
[22] = molecular target: Cyclin-dependent kinase-like 2 (Homo sapiens) (UniProt Q92772); details: Compound concentration 1000.0 nM
[23] = molecular target: T2, Muscarinic acetylcholine receptor M2 (Homo sapiens) (UniProt P08172); details: Compound concentration 10.0 uM
T2 sequence (whole entry): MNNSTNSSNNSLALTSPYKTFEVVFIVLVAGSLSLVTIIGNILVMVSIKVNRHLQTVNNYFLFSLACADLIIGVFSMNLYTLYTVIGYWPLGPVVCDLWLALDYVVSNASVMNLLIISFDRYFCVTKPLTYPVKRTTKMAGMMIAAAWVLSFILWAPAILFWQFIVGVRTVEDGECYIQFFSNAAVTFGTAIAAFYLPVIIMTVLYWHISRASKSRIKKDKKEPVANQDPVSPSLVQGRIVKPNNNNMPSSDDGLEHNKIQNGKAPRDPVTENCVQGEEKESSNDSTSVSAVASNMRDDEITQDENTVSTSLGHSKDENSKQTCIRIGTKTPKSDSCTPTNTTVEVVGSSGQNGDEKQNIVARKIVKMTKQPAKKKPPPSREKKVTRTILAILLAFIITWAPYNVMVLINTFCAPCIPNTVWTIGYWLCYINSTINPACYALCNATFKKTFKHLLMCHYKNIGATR

[24] = molecular target: T3, Alpha-2B adrenergic receptor (Homo sapiens) (UniProt P18089); assay: alpha 2B (h) CEREP ligand profiling; details: filed as antagonist, Compound concentration 10.0 uM
T3 sequence (whole entry): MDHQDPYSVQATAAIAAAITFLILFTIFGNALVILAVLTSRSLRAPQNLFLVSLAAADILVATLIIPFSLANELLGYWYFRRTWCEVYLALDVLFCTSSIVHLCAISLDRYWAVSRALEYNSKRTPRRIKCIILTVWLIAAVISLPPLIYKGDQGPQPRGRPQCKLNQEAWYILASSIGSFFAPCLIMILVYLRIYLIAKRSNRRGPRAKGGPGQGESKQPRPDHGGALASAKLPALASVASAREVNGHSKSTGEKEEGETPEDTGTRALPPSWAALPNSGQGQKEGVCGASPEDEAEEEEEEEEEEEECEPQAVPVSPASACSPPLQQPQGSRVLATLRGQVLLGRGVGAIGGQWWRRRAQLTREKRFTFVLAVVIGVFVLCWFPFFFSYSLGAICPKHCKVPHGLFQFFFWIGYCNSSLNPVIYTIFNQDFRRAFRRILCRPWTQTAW

Chain of Myosin-IIIb (Homo sapiens) (Q8WXR4 whole entry): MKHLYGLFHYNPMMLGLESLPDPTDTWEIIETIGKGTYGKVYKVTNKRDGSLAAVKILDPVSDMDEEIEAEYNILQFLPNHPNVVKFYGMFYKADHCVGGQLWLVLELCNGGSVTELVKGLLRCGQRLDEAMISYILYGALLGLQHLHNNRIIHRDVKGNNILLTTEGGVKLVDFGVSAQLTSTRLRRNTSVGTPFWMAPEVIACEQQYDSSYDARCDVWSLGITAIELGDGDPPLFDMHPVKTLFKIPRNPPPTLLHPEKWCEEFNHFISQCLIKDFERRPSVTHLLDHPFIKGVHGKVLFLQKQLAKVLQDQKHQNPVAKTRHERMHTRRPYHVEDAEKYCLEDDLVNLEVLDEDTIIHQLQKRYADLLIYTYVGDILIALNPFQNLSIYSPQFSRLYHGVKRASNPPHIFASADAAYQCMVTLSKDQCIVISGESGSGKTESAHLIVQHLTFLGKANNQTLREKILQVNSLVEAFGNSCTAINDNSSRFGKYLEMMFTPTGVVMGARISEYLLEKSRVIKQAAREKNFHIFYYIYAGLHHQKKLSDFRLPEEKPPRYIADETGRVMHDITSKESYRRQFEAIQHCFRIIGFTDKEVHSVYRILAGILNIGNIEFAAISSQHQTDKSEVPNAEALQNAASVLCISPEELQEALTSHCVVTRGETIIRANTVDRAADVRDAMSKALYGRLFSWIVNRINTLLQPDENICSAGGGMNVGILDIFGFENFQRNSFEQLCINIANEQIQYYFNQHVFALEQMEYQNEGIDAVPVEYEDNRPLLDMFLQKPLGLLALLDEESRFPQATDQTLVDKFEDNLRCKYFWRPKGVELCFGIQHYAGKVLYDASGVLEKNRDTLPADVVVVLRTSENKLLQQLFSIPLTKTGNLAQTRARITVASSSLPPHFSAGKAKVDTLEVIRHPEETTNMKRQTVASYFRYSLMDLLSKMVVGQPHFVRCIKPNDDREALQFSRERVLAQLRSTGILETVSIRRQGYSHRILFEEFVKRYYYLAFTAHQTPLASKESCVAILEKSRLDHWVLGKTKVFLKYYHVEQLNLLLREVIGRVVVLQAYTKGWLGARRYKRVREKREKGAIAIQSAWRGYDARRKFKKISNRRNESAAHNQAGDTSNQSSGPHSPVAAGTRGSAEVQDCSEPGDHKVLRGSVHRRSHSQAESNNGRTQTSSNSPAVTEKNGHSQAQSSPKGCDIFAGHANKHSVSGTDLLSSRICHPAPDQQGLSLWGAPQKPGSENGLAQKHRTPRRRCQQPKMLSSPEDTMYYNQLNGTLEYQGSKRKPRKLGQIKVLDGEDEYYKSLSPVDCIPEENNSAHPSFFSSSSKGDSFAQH
Chain of BDNF/NT-3 growth factors receptor (Homo sapiens) (Q16620 32-822 limits assumed): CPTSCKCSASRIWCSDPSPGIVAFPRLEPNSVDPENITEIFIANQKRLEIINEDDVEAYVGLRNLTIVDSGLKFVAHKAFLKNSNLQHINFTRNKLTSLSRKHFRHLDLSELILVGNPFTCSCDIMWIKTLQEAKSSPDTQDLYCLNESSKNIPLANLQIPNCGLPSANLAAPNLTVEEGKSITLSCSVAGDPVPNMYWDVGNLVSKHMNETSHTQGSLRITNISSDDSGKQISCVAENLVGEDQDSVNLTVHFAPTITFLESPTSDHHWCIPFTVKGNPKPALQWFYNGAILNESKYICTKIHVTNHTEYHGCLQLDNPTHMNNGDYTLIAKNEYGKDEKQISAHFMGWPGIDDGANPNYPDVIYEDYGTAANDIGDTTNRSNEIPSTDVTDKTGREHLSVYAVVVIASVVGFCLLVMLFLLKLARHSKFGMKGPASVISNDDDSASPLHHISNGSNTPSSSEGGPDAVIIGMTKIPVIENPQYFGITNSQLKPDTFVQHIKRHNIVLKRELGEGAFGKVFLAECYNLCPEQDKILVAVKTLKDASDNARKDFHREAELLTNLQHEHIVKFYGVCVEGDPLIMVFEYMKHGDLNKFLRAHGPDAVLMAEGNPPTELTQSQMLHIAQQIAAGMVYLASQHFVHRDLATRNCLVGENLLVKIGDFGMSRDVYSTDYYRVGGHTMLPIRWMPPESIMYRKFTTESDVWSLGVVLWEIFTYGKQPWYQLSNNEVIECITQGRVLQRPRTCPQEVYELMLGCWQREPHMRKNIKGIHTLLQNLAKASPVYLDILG
Chain of Mitogen-activated protein kinase 7 (Homo sapiens) (Q13164 2-816 limits assumed): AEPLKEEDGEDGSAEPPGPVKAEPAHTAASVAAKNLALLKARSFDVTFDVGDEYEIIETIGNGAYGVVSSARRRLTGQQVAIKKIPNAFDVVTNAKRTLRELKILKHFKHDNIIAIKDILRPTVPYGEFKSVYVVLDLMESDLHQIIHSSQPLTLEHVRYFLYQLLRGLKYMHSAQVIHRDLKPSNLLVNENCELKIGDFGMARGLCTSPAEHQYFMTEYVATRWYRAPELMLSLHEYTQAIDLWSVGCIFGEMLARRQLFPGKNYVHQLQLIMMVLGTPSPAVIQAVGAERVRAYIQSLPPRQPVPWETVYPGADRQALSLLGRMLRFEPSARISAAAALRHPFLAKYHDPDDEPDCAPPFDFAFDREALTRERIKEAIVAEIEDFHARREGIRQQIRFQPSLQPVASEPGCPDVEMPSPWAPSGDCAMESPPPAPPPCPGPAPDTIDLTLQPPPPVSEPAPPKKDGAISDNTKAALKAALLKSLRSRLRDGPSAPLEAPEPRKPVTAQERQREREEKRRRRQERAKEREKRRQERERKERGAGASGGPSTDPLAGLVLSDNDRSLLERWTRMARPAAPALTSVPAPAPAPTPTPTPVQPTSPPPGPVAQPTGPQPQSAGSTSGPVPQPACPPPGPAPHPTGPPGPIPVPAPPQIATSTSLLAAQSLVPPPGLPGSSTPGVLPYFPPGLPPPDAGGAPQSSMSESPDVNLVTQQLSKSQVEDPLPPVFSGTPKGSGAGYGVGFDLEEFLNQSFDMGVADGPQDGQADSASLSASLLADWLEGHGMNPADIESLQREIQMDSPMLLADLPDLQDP
Chain of Serine/threonine-protein kinase STK11 (Homo sapiens) (Q15831 whole entry): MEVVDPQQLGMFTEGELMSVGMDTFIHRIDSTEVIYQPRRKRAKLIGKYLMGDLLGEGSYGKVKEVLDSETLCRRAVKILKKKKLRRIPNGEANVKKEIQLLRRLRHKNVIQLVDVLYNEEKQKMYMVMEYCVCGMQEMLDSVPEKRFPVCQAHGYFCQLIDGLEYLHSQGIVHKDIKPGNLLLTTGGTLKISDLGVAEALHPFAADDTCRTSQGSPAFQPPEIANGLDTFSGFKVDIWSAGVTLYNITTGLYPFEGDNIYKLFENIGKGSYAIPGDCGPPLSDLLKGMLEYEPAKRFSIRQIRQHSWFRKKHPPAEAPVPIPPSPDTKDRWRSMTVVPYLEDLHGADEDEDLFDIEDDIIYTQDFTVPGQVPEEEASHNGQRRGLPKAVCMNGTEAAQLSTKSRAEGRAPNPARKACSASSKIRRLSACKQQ
Chain of Serine/threonine-protein kinase OSR1 (Homo sapiens) (O95747 2-527 limits assumed): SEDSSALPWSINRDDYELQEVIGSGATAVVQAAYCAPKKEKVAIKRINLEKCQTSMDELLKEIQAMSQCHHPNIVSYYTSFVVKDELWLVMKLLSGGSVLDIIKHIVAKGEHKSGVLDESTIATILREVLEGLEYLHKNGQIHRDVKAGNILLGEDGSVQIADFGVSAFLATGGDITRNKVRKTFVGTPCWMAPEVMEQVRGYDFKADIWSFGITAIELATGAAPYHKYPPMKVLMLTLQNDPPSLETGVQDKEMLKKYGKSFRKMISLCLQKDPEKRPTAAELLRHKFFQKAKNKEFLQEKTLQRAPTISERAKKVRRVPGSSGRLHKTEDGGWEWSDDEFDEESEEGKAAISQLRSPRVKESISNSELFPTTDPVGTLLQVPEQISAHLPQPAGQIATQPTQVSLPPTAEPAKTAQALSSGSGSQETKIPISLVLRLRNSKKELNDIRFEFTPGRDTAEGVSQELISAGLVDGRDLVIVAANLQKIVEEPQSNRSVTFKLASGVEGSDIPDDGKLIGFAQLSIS
Chain of RAC-gamma serine/threonine-protein kinase (Homo sapiens) (Q9Y243 whole entry): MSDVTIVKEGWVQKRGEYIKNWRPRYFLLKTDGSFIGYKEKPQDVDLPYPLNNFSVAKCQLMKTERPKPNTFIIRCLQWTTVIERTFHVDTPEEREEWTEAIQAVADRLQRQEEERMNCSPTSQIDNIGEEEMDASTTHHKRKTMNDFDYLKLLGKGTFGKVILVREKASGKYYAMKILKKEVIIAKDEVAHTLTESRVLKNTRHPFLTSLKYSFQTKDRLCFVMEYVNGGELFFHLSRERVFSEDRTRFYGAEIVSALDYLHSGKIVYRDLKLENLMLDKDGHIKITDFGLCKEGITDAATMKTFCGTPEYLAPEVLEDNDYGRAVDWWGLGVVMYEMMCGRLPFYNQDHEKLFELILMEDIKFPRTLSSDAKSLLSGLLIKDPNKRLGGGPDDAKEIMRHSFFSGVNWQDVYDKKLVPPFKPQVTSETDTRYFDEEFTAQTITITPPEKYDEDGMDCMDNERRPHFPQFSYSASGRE
Chain of Serine/threonine-protein kinase 26 (Homo sapiens) (Q9P289 2-416 limits assumed): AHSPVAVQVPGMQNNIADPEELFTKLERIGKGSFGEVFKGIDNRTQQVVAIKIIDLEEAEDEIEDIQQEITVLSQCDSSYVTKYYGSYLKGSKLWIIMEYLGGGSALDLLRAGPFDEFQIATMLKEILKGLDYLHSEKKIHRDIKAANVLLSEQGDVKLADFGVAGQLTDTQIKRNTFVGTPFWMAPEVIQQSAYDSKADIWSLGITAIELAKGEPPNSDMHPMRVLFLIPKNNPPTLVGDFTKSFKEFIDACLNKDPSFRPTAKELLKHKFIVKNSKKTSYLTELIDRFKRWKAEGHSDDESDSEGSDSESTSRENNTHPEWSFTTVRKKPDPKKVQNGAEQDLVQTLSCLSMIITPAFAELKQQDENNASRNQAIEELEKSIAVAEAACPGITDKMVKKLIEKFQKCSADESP

CNC(=O)Nc1ccc2c(c1)[C@@]1(CC2)OC(=O)N(CC(=O)N(Cc2ccc(F)cc2)[C@@H](C)C(F)(F)F)C1=O [A-486]
inactive: residual activity [1] 85% | residual activity [2] 65% | residual activity [3] 94% | residual activity [4] 100% | residual activity [5] 97% | residual activity [6] 100% | residual activity [7] 96% | residual activity [8] 100% | residual activity [9] 100% | residual activity [10] 100% | residual activity [11] 83% | residual activity [12] 86% | residual activity [13] 85% | residual activity [14] 90% | residual activity [15] 100% | residual activity [16] 89% | residual activity [17] 100% | inhibition [18] -7% | residual activity [19] 100% | inhibition [20] -5% | residual activity [21] 100% | residual activity [22] 83% | inhibition [23] 3.15% | inhibition [24] 4%

CNC(=O)Nc1ccc2c(c1)CC[C@@]21OC(=O)N(CC(=O)N(Cc2ccc(F)cc2)[C@@H](C)C(F)(F)F)C1=O [A-485]
inactive: residual activity [1] 90% | residual activity [2] 80% | residual activity [3] 100% | residual activity [4] 100% | residual activity [5] 83% | residual activity [6] 90% | residual activity [7] 100% | residual activity [8] 88% | residual activity [9] 75% | residual activity [10] 79% | residual activity [11] 91% | residual activity [12] 80% | residual activity [13] 60% | residual activity [14] 91% | residual activity [15] 100% | residual activity [16] 95% | residual activity [17] 100% | inhibition [18] 11% | residual activity [19] 91% | inhibition [20] 12% | residual activity [21] 94% | residual activity [22] 100% | inhibition [23] -0.28% | inhibition [24] -4%
